Reference: PMC8831520, “Small molecule SWELL1 complex induction improves glycemic control and nonalcoholic fatty liver disease in murine Type 2 diabetes” (Nature Communications, 2022)

Legend:
[1] = target: T1, R103E-SWELL1 expressing HEK-293 cells (R103E O/E) (Homo sapiens, UniProt Q8IWT6, R103E); assay: ICl,SWELL inhibition in SWELL1-R103E overexpressing cells, patch-clamp; format: cell-based
T1 construct: P2A:EGFP (C); host or cells: HEK-293, Lipofectamine 2000, co-transfected with CMV-Cre; EGFP+ cells recorded
T1 sequence (Q8IWT6 whole entry R103E): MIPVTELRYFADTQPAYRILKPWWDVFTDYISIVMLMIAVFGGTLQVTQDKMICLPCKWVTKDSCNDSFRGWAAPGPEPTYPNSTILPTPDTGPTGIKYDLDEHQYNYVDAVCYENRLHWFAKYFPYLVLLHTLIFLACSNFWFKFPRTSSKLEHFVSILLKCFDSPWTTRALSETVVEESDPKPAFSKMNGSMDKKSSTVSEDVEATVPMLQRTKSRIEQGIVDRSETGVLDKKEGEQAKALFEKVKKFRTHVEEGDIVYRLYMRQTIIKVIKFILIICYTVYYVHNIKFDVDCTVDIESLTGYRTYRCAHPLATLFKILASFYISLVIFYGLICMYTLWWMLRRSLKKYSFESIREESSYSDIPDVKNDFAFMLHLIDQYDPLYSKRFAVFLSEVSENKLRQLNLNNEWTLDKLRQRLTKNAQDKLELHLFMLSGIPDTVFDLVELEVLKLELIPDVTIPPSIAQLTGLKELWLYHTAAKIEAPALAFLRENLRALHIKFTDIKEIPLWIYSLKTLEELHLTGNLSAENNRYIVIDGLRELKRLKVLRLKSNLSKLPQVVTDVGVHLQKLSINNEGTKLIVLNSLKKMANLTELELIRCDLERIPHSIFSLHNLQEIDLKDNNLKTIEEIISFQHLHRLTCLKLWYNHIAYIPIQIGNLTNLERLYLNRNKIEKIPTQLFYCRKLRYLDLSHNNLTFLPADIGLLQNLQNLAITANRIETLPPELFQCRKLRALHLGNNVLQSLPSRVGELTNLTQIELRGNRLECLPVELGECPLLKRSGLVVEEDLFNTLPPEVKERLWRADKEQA
Description: See also Fig. 6 for a schematic representation. […] For SWELL1-R103E overexpression experiments, HEK-293 cells were transfected with either control Cre plasmid (CMV-Cre, McDonnell Genome Institute in Washington University in St. Louis) or Cre plus R103E-GFP (CAG-LoxP-stop-LoxP-SWELL1-R103E/3XFlag:P2A:EGFP, Vector Biolabs) plasmid using Lipofectamine 2000 as per the manufacturer’s protocol. SWELL1-R103E expressing HEK-293 cells were identified by EGFP + fluorescence.

[2] = system: cadaveric human islets; assay: GSIS perifusion of palmitate-treated human islets; format: cell-based; conditions: 10 µM for 4 days prior to and during 1 mM palmitate 16 h, washed off during GSIS
Experimental: Cadaveric human islets were obtained from the Integrated Islet Distribution Program (IIDP), Prodo Laboratories, and the Alberta Diabetes Institute Islet Core. The human islets obtained from the Integrated Islet Distribution program and Prodo laboratories were exempt from Institutional Review Board approval under 45 CRR 46.101 (b) category (4) and 45 CFR 46.102 h, respectively. Human islets were obtained from the Alberta Diabetes Institute IsletCore at the University of Alberta in Edmonton (http://www.bcell.org/adi-isletcore.html) with the assistance of the Human Organ Procurement and Exchange (HOPE) program, Trillium Gift of Life Network (TGLN), and other Canadian organ procurement organizations. Islet isolation was approved by the Human Research Ethics Board at the University of Alberta (Pro00013094). All donors’ families gave informed consent for the use of pancreatic tissue in research. Human islets were cultured in RPMI media with 2% FBS overnight. […] Insulin concentrations were further determined using a commercially available ELISA kit (Mercodia). The area under the curve (AUC) for the high-glucose-induced insulin release was calculated for time points between 50 to 74/84 min. At the completion of the experiment, islets were further lysed by the addition of RIPA buffer and the amount of insulin was detected by ELISA.

[3] = system: insulin-AKT2-AS160 signaling in 3T3-F442A cells; assay: Insulin-stimulated AKT2-AS160 signaling western blot; format: cell-based, murine; conditions: 96 h
Experimental: Adipocytes were washed twice in ice-cold phosphate buffer saline and lysed in RIPA buffer (150 mM NaCl, 20 mM HEPES, 1% NP-40, 5 mM EDTA, pH 7.4) with proteinase/phosphatase inhibitors (Roche). The cell lysate was further sonicated in 10 s cycle intervals 2–3 times and centrifuged at 18,407×g for 30 min at 4 °C and repeated one more time to remove the excess fat. The supernatant was collected and further estimated for protein concentration using a DC protein assay kit (Bio-Rad). Fat and liver tissues were homogenized and suspended in RIPA buffer with inhibitors and further processed in a similar fashion as described above. HUVECs were also prepared in a similar fashion except the lysates were spun only once to remove the cells debris to obtain the clear supernatant. For islets, either human or mouse islets were washed twice with phosphate buffer saline (PBS) and lysed using RIPA buffer containing protease and phosphatase inhibitors. The lysate was further clarified by freezing in liquid nitrogen for about 10 s for three cycles. The supernatant was collected from the whole lysate centrifuged at 16,260×g for 20 min at 4 °C. […] For soleus muscle, the tissue was homogenized in a Bullet Blender homogenizer (Speed-9, Time-3 mins) in 8 volumes of ice-cold muscle homogenization buffer (50 mM Tris, 25 mM NaCl, 0.2% Nonidet P-40, 5 mM EGTA, 2.5 mM EDTA, 20 mM NaF, 20 mM Na4P2O7·10H2O, 2 mM Na3VO4, pH 7.4) supplemented with protease/phosphatase inhibitor (Roche). The homogenized lysate was centrifuged two times at 18,500×g for 20 min at 4 °C and supernatant was collected for protein estimation. Protein samples were further prepared by boiling in 2X or 4X Laemmli buffer. Approximately 10–60 µg of total protein was loaded in 4–15% gradient gel (Bio-Rad) for separation and protein transfer was carried out onto the PVDF membranes (Bio-Rad). […] The images were further analyzed for band intensities using ImageJ software. […]

## CCCCC1(C2CCCC2)Cc2cc(OCCCC(=O)O)c(Cl)c(Cl)c2C1=O (centres unmarked) [SN-401, 4-((2-butyl-6,7-dichloro-2-cyclopentyl-1-oxo-2,3-dihydro-1H-inden-5-yl)oxy)butanoic acid]
[1]
  IC50: 6 µM
[2]
  glucose-stimulated insulin secretion after palmitate: normalized
[3]; 500 nM, WT adipocytes
  insulin-stimulated levels of pAS160: enhanced
[3]; 10 µM preadipocytes, 500 nM adipocytes
  insulin-stimulated levels of pAKT2: enhanced
[3]; SWELL1 KO 3T3-F442A adipocytes, 500 nM
  effects on insulin-AKT2-AS160 signaling in SWELL1 KO adipocytes: absent
